The target in series [1] is T1, ACAT1 (Homo sapiens (Human), UniProt P35610). The experiment in a line: human ACAT1 IC50 by mixed liposome assay.
Procedure: In vitro Mixed Liposomal ACAT Activity Assay. […] Lysed cells were collected and aliquoted into pre-chilled tubes containing the liposomal mixture of taurocholate, phosphatidylcholine, and cholesterol. Tubes were vortexed and kept on ice for 5 minutes. Samples were then incubated in a 37° C. shaking water bath with ^3H-oleoyl CoA added for 10 minutes. The assay was stopped by adding CHCl3:MeOH (2:1). Lipids were extracted and analyzed by the same TLC method described herein.
For the next series, the system named is ACAT. In words: ACAT enzyme activity in mouse tissue homogenates after IV injection of nanoparticles. Type of series: in vivo. The conditions noted are these: delivered IV in nanoparticles. Here is the method:
A1^−/− refers to Acat1^−/− mouse. ACAT activity was determined by using a mixed liposome assay. N=4 for WT mice age (2-3 months) and gender matched. N=1 for A1^−/− mouse. N.S., not significant; P<0.05*, P<0.01**, P<0.001***. Analysis by two-way ANOVA. The significance is relative to vehicle-treated group.
A1^−/− refers to Acat1^−/− mouse. Note, the major isoenzyme in mouse liver is ACAT2. ACAT activity was determined without or with perfusion as indicated. N=3-4 for WT mice age- and gender-matched. N=1 for A1^−/− mouse. N.S., not significant; P<0.05*, P<0.01**, P<0.001***. Two-way ANOVA. The significance is relative to vehicle-treated group.
Mice were perfused before brains were isolated. N=2-3 WT mice/group. N=1 A1^−/− mouse. Statistical analysis, 2-way ANOVA. *P<0.05; **P<0.01; ***P<0.001.
As a component of the above-referenced analysis, a portion of the mice were treated with perfusion (to remove blood contamination from tissues).

In series [2] the test system is IL-4Rα. In words: IL-4Rα protein content in HMC3 cells (western blot). It counts as cell-based, human. The conditions noted are these: for IL-4Rα protein content: human myelin debris-treated HMC3 cells, co-incubation. Here is the method:
. Exp. 130:56322) for 21 hours.
. […] Protein was isolated and analyzed by western blot analysis. Vinculin was the loading control. […]; **P<0.01.
Subsequently, myelin debris from human brains was prepared and it was observed that the cholesterol/protein ratio, as well as the protein composition between mouse myelin debris and human myelin debris, were very similar.

For series [3] the following is noted: in vivo; cited from earlier work.
The subject of the next series is ABCA1. The experiment in a line: ABCA1 protein content in human myelin debris-treated HMC3 cells. It counts as cell-based. The conditions noted are these: HMC3, human myelin debris 25 μg/mL cholesterol, 0.5 μM, 24 hours. Here is the method:
[…]. Afterward, cells were harvested for western blot analyses. Lysates of HEK293 cells and lysates of HMC3 cells treated with 10 μM LXR agonist T0901317 for 24 hours were respectively used as negative and positive controls for ABCA1 signals. […] Data are expressed as mean±SEM.
Subsequently, myelin debris from human brains was prepared and it was observed that the cholesterol/protein ratio, as well as the protein composition between mouse myelin debris and human myelin debris, were very similar. […]

For series [4] the following is noted: mice, orally administered; cited from earlier work.
The target of series [5] is T2, ACAT2 (Homo sapiens (Human), UniProt O75908). The conditions noted are these: cited from earlier work.
For a further series, the system named is primary cortical neurons. The experiment in a line: Lactate dehydrogenase (LDH) toxicity assay.
The test system of series [6] is IL-4Rα. The experiment in a line: IL-4Rα expression in N9 microglial cells (immunoblot).
Procedure: Cells were harvested for immunoblot analysis for IL-4Rα. Vinculin was the loading control. Data expressed as mean+/− SEM, * p<0.05, ** p<0.01.
IL-4Rα expression was determined by convention methods. 25 μg/mL cholesterol equals 38 μg/mL total myelin debris protein. Data are expressed as mean±SEM. *P<0.05; **P<0.01.
The next series deals with N9 microglial cells. The experiment in a line: inflammatory responses to LPS in N9 microglial cells (qPCR, IκB-α western blot). Type of series: cell-based, mouse. The conditions noted are these: 0.5 μM for 4 hours, then LPS 10-1000 ng/mL. Here is the method: Six hours later, mRNA was extracted, and qPCR was performed to monitor pro-inflammatory (FIG. 4A) or anti-inflammatory (FIG. 4B) gene expression. […] Thirty minutes later, proteins were extracted for western blot analysis for total IκB-α, and for phosphorylated […]<0.01.

Another series concerns amyloidopathy. The conditions noted are these: in vivo; cited from earlier work.
In series [7] the target is T1, ACAT1. The conditions noted are these: cited from earlier work.
For series [8], the target named is T2, ACAT2. The conditions noted are these: cited from earlier work. This is another data set of the same source.
In the next series the target is mouse ACAT1 (Mus musculus (Mouse), UniProt Q61263). In words: ACAT1 protein by western blot in microRNA-transfected NIH-3T3 mouse fibroblasts. Type of series: cell-based. The conditions noted are these: for Relative Intensity (ACAT1 normalized to GAPDH): NIH-3T3, GFP-positive cells, 48 hours post-transfection; for reduction in ACAT1 protein content: mouse 3T3 fibroblasts, cDNA transfection. The text has this: NIH-3T3 mouse fibroblasts were transiently transfected with one of several rAAV vectors encoding EmGFP and microRNA (miR) #52, #53, #54 or #55. Forty-eight hours post-transfection, GFP-positive cells were harvested by FACS. GFP-positive cells were washed then lysed in 10% SDS and syringe homogenized. Twenty microgram of protein per sample was subjected to SDS-PAGE. After western blot analysis, bands were quantified with ImageJ. ACAT1 intensity was normalized to GAPDH as a loading control and expressed as relative intensity.
Four different siRNA molecules (#52-#55; Table 3) targeting the mouse Acat1 gene were inserted into an endogenous mouse microRNA (miR) scaffold using Invitrogen's RNAi design tool. The artificial miRs were ligated into the mammalian expression vector pcDNA6.2-GW/EmGFP-miR. […] The miRs were delivered to the cells using a standard cDNA transfection protocol.
For orientation: A western blot detects proteins with antibodies after separation by electrophoresis.

T1 sequence (P35610 whole entry): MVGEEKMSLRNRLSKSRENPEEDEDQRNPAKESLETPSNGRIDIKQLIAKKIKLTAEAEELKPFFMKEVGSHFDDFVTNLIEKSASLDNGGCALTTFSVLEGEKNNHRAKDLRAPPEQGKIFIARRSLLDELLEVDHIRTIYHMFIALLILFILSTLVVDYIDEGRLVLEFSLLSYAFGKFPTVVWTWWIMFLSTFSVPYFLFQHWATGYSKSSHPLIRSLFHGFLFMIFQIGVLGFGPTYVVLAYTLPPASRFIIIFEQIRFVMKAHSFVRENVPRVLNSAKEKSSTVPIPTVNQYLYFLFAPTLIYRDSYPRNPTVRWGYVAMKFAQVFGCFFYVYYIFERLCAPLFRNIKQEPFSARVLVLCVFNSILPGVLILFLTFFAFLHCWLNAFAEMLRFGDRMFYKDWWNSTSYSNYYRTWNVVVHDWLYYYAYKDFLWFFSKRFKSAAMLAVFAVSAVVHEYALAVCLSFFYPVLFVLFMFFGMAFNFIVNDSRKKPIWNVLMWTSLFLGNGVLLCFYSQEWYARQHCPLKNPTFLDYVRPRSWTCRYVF
T2 sequence (O75908 whole entry): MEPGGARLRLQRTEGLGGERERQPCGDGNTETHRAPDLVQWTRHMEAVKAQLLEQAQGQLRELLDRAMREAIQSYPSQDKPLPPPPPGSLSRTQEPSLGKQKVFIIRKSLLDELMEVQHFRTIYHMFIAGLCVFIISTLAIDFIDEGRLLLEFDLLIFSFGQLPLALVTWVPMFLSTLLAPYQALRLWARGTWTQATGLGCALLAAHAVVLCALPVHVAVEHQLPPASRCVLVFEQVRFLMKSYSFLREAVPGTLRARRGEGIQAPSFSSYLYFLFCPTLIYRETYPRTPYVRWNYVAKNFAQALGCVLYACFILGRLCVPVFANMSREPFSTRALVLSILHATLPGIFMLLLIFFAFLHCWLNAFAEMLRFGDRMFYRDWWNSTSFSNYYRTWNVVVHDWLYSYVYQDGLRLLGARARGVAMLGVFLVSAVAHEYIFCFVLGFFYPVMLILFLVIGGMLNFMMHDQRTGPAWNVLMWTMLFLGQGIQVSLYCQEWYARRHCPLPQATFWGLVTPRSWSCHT
Procedure for primary cortical neurons: Cells were incubated in enriched neurobasal (NB) medium (Thermo Fisher Scientific, Waltham, MA) (500 mL NB media, 200 mM L-glutamine, B-27 with vitamin A, 1 mL penicillin-streptomycin (1%), and 340 mg glucose). Neurons were allowed to grow processes for 4-6 days prior to treatment.
Lactate Dehydrogenase (LDH) Toxicity Assay. Primary cortical neurons were harvested and maintained as described above. […] After treatment, the conditioned media from the cells were collected, spun at 12,000 rpm for 30 minutes to remove cellular debris, supernatant transferred to new tube, and frozen at −80° C. until time of assay. Using Cytotoxicity Detection Kit (LDH) (Roche), media and reaction mixture were mixed, incubated for 30 minutes at room temperature protected from light, and the absorbance was measured at 490 nm.

`CCCCCCCCCCCCS(=O)(=O)[C@](F)(C(=O)Nc1cc(C)c(O)c(C)c1C)c1ccccc1` [Analog F26]: on ACAT1 [1], the IC50 was determined as 13 nM and the “potency relative to F12511” value was approximately 3 times. In addition, the brain permeability entry in the series on ACAT is “brain permeable”.

Regarding `CCCCCCCCCCCCS[C@H](C(=O)Nc1cc(C)c(O)c(C)c1C)c1ccccc1` [Analog F12511], the IL-4Rα protein content entry in the series with IL-4Rα [2] is listed as “IL-4Rα protein content increases”. In series [3], the clinical safety entry is on record as “passed phase I clinical safety tests”. The ABCA1 protein content result with ABCA1 is listed as “increased significantly”. In the series with ACAT, the brain permeability result is listed as “permeable to the brain”. For the same compound, in series [4], the “half-life in the blood” value is 1 to 2 h. The Ki on ACAT2 [5] is 110 nM. The “cellular toxicity (LDH leakage)” value was “minimal, if any, toxicity” in the series with primary cortical neurons (24 hours, 2 μM to 100 μM); “slight increase in toxicity” in the series on primary cortical neurons (48 hours, very high concentrations (near 100 μM)); “only very minimal toxicity” in the series on primary cortical neurons (72 hours, 10 μM); “more toxicity was detected” with primary cortical neurons (72 hours, high concentration (near 100 μM)).

Consider `CSc1cc(C)nc(SC)c1NC(=O)CN1CCN(CCSc2nc3ccccc3[nH]2)CC1` [Analog K-604, 2-[4-[2-(benzimidazol-2-ylthio)ethyl]piperazin-1yl]-N-[2,4-bis(methylthio)-6-methyl-3-pyridyl]acetamide], for which the “expression of the receptor IL-4Rα” value in the series with IL-4Rα [6] (0.5 μM for 4 or 12 hours) is listed as “increases expression of the receptor IL-4Rα”. Moreover, the “enhancing effect on IL4R-α with myelin debris” value in the series with IL-4Rα [6] (mouse myelin debris, 21 hours) is on record as “more robust”; with IL-4Rα [2] (HMC3 cells, mouse myelin debris, 21 hours), “more robust”. In the series on IL-4Rα [2], the IL-4Rα protein content result is on record as “IL-4Rα protein content increases”. In addition, in series [3], the clinical safety entry is listed as “passed phase I clinical safety tests”. Moreover, the ABCA1 protein content entry in the series with ABCA1 was “increased significantly”. Moreover, the “inflammatory responses to LPS” value in the series on N9 microglial cells was “attenuates inflammatory responses to LPS”.

With `CC(C)c1cc(C(C)C)c(CC(=O)NS(=O)(=O)Oc2c(C(C)C)cccc2C(C)C)c(C(C)C)c1` [CI 1011], in the series with amyloidopathy, the “amyloidopathy in a mouse model for AD” value was “reduce amyloidopathy”.

In the case of `CCCCCCCC[C@H](SCCCCCC)C(=O)Nc1c(SC)cc(C)nc1SC` [CP113,818], in the series with amyloidopathy, the “amyloidopathy in a mouse model for AD” value was “reduce amyloidopathy and rescue cognitive deficits”.

Take `CCOC(=O)OC(=O)OCC` [diethyl pyrocarbonate]: the “fold lower IC50 / greater activity for ACAT1 than for ACAT2” value on ACAT1 [7] is recorded as 4 fold.

Regarding `COc1ccc([C@@H](O)[C@@H](C)Oc2ccc([C@H]3O[C@H](c4ccc(O[C@H](C)[C@H](O)c5ccc6c(c5)OCO6)c(OC)c4)[C@H](C)[C@H]3C)cc2OC)cc1OC` [manassantin B], the “inhibition of hACAT-2” value at ACAT2 [8] (at 1 mM) is given as 32%.

Regarding “miR #52: artificial microRNA targeting mouse ACAT1 sequence GGAGCTGAAGCCACTATTTAT (SEQ ID NO:1) (expressed or natural sequence; the letters are possibly those of the target site)”, in the series with mouse ACAT1, the “Relative Intensity (ACAT1 normalized to GAPDH)” value is 0.77.

As for “miR #53: artificial microRNA targeting mouse ACAT1 sequence CTGTTTGAAGTGGACCACATCA (SEQ ID NO:2) (expressed or natural sequence; the letters are possibly those of the target site)”, the “Relative Intensity (ACAT1 normalized to GAPDH)” value in the series with mouse ACAT1 amounted to 0.56.

“miR #54: artificial microRNA targeting mouse ACAT1 sequence CCCGGTTCATTCTGATACTGGA (SEQ ID NO:3) (expressed or natural sequence; target site or template, no part of the molecule)”: in the series with mouse ACAT1, the “Relative Intensity (ACAT1 normalized to GAPDH)” value is 0.54 and the “reduction in ACAT1 protein content” value is 50-60%.

As to “miR #55: artificial microRNA targeting mouse ACAT1 sequence AACTACCCAAGGACTCCTACTGTA (SEQ ID NO:4) (expressed or natural sequence; the letters are possibly those of the target site)”, in the series with mouse ACAT1, the “Relative Intensity (ACAT1 normalized to GAPDH)” value turned out to be 0.39 and the “reduction in ACAT1 protein content” value is listed as 50-60%.

Turning to “miR Negative Control: negative control miR (SEQ ID NO:9) which does not match any known vertebrate gene (TACTGCGCGTGGAGACG)”, in the series with mouse ACAT1, the “Relative Intensity (ACAT1 normalized to GAPDH)” value came to 1.02.

For the compound saucerneol B, the IC50 on ACAT2 [8] (Lee et al. 2004, read-out: IC50 hACAT-2) is 124000 nM.

In general, IC50 refers to the concentration needed to halve the response being measured. By Ki is commonly meant a dissociation constant, usually derived from enzyme kinetics or from competition with a known ligand.

Source of the values: patent publication US12419847B2, “Composition and method for attenuating neuroinflammation, amyloidopathy and tauopathy” (Trustees of Dartmouth College, priority 2020, dated 2025).
